Reference: ChEMBL document CHEMBL3880421, “Indazole compounds and pharmaceutical compositions for inhibiting protein kinases, and methods for their use” (2003)

Experiment: Antiproliferative activity against VEGF-stimulated HUVEC cells assessed as reduction in cell viability at 10 nM preincubated for 1 hr followed by addition of VEGF measured after 72 hrs by MTT assay
Assay type: functional
Conditions: Homo sapiens

Row | SMILES | inhibition at 0.01 µM [%]
1 | O=C(c1cccc(NC(=O)C2CCOC2)c1)c1ccc2c(/C=C/c3ccccc3)n[nH]c2c1 (stereo not drawn) | 12
2 | O=C(Cc1cc(F)ccc1F)Nc1cccc(Oc2ccc3c(/C=C/c4ccccc4)n[nH]c3c2)c1 | 91
3 | CN1CC(C(=O)Nc2cccc(Nc3ccc4c(/C=C/c5ccccc5)n[nH]c4c3)c2)CC1=O (stereo not drawn) | 20
4 | CCCN(CCC)CC(=O)Nc1cccc(C(=O)c2ccc3c(/C=C/c4ccccc4)n[nH]c3c2)c1 | -2
5 | CC(C)CC(O)C(=O)Nc1cccc(C(=O)c2ccc3c(/C=C/c4ccccc4)n[nH]c3c2)c1 (stereo not drawn) | 47
6 | O=C(CC1=CCCCC1)Nc1cccc(Oc2ccc3c(/C=C/c4ccccc4)n[nH]c3c2)c1 | 92
7 | O=C(c1cccc(NC(=O)C(O)c2ccccc2)c1)c1ccc2c(/C=C/c3ccccc3)n[nH]c2c1 (stereo not drawn) | 3
8 | C/C(=C\C(=O)Nc1cccc(Oc2ccc3c(/C=C/c4ccccc4)n[nH]c3c2)c1)c1ccccc1C | 52
9 | O=C(Nc1cccc(Oc2ccc3c(/C=C/c4ccccc4)n[nH]c3c2)c1)C1CCCO1 (stereo not drawn) | 51
10 | O=C(Nc1cccc(C(=O)c2ccc3c(/C=C/c4ccccc4)n[nH]c3c2)c1)c1ccc(=O)oc1 | -62
11 | O=C(Cn1ccc2ccccc21)Nc1cccc(Oc2ccc3c(/C=C/c4ccccc4)n[nH]c3c2)c1 | 52
12 | CO[C@H](C(=O)Nc1cccc(Nc2ccc3c(/C=C/c4ccccc4)n[nH]c3c2)c1)c1ccccc1 | 80
13 | Cc1nc(S)sc1CC(=O)Nc1cccc(C(=O)c2ccc3c(/C=C/c4ccccc4)n[nH]c3c2)c1 | 24
14 | CC(C)=NOC(C)C(=O)Nc1cccc(Nc2ccc3c(/C=C/c4ccccc4)n[nH]c3c2)c1 (stereo not drawn) | -1
15 | CN1CCC=C(C(=O)Nc2cccc(Oc3ccc4c(/C=C/c5ccccc5)n[nH]c4c3)c2)C1 | 43
16 | O=C(Nc1cccc(C(=O)c2ccc3c(/C=C/c4ccccc4)n[nH]c3c2)c1)C(=O)C1=CCCCC1 | 45
17 | O=C(c1cccc(NC(=O)[C@H]2CCC[C@H]2O)c1)c1ccc2c(/C=C/c3ccccc3)n[nH]c2c1 | 39
18 | CC(=O)c1ccc(C(=O)Nc2cccc(Nc3ccc4c(/C=C/c5ccccc5)n[nH]c4c3)c2)s1 | 78
19 | CN1CC(C(=O)Nc2cccc(Oc3ccc4c(/C=C/c5ccccc5)n[nH]c4c3)c2)CC1=O (stereo not drawn) | 24
20 | O=C(Cn1ccc2ccccc21)Nc1cccc(Nc2ccc3c(/C=C/c4ccccc4)n[nH]c3c2)c1 | -7

Row | SMILES | inhibition at 0.01 µM [%]
21 | COC1CCCC(C(=O)Nc2cccc(C(=O)c3ccc4c(/C=C/c5ccccc5)n[nH]c4c3)c2)C1 (stereo not drawn) | 30
22 | COc1ccccc1/C=C/C(=O)Nc1cccc(Oc2ccc3c(/C=C/c4ccccc4)n[nH]c3c2)c1 | 17
23 | O=C(/C=C/C(=O)Nc1cccc(Nc2ccc3c(/C=C/c4ccccc4)n[nH]c3c2)c1)NCC1CC1 | 13
24 | CC1(C)C(C(=O)Nc2cccc(Oc3ccc4c(/C=C/c5ccccc5)n[nH]c4c3)c2)C1(C)C | 71
25 | O=C(Cc1cc(F)cc(F)c1)Nc1cccc(C(=O)c2ccc3c(/C=C/c4ccccc4)n[nH]c3c2)c1 | 87
26 | O=C(c1cccc(NC(=O)c2cc(=O)cco2)c1)c1ccc2c(/C=C/c3ccccc3)n[nH]c2c1 | -13
27 | CC(=O)NC(C)(C)CC(=O)Nc1cccc(Nc2ccc3c(/C=C/c4ccccc4)n[nH]c3c2)c1 | -9
28 | O=C(c1cccc(NC(=O)C2C[C@H]3C=C[C@H]2C3)c1)c1ccc2c(/C=C/c3ccccc3)n[nH]c2c1 (stereo partly drawn) | 44
29 | CCC(C(=O)Nc1cccc(Oc2ccc3c(/C=C/c4ccccc4)n[nH]c3c2)c1)c1ccccc1C (stereo not drawn) | 46
30 | O=C1C[C@H](C(=O)Nc2cccc(Oc3ccc4c(/C=C/c5ccccc5)n[nH]c4c3)c2)NC(=O)N1 | -6
31 | CC(C)(C)[C@@H](O)C(=O)Nc1cccc(Oc2ccc3c(/C=C/c4ccccc4)n[nH]c3c2)c1 | 30
32 | CCO/C(C)=C/C(=O)Nc1cccc(C(=O)c2ccc3c(/C=C/c4ccccc4)n[nH]c3c2)c1 | 72
33 | O=C(Nc1cccc(Nc2ccc3c(/C=C/c4ccccc4)n[nH]c3c2)c1)C1C[C@H]2C[C@@H]1CCC2O (stereo partly drawn) | -9
34 | CC1(C)OC(=O)CC1C(=O)Nc1cccc(Nc2ccc3c(/C=C/c4ccccc4)n[nH]c3c2)c1 (stereo not drawn) | 16
35 | O=C(Nc1cccc(Nc2ccc3c(/C=C/c4ccccc4)n[nH]c3c2)c1)c1cc(=O)cco1 | 17
36 | O=C(Cc1ccccc1)C(=O)Nc1cccc(C(=O)c2ccc3c(/C=C/c4ccccc4)n[nH]c3c2)c1 | -37
37 | CC(C)=CC1C(C(=O)Nc2cccc(Oc3ccc4c(/C=C/c5ccccc5)n[nH]c4c3)c2)C1(C)C (stereo not drawn) | 24
38 | CC(=O)N1CCC[C@@H]1C(=O)Nc1cccc(C(=O)c2ccc3c(/C=C/c4ccccc4)n[nH]c3c2)c1 | 37
39 | O=C(Nc1cccc(Oc2ccc3c(/C=C/c4ccccc4)n[nH]c3c2)c1)C1CC2C=CCC(C2)C1 (stereo not drawn) | 17
40 | O=C(Cc1cccnc1)Nc1cccc(Nc2ccc3c(/C=C/c4ccccc4)n[nH]c3c2)c1 | 43

Row | SMILES | inhibition at 0.01 µM [%]
41 | O=C(Nc1cccc(Nc2ccc3c(/C=C/c4ccccc4)n[nH]c3c2)c1)C1CC2CC(O)C1C2 (stereo not drawn) | -20
42 | Cc1cc(C(=O)Nc2cccc(Oc3ccc4c(/C=C/c5ccccc5)n[nH]c4c3)c2)c(C)[nH]1 | 52
43 | CCC(C(=O)Nc1cccc(Nc2ccc3c(/C=C/c4ccccc4)n[nH]c3c2)c1)c1ccccc1C (stereo not drawn) | -3
44 | CC(=O)NC(C)(C)CC(=O)Nc1cccc(Oc2ccc3c(/C=C/c4ccccc4)n[nH]c3c2)c1 | 42
45 | O=C(Cc1cccnc1)Nc1cccc(Oc2ccc3c(/C=C/c4ccccc4)n[nH]c3c2)c1 | 76
46 | O=C(CCC(=O)N1CCCC1)Nc1cccc(Oc2ccc3c(/C=C/c4ccccc4)n[nH]c3c2)c1 | 48
47 | CCCN(CCC)CC(=O)Nc1cccc(Nc2ccc3c(/C=C/c4ccccc4)n[nH]c3c2)c1 | 17
48 | C/C(=C\C(=O)Nc1cccc(C(=O)c2ccc3c(/C=C/c4ccccc4)n[nH]c3c2)c1)c1ccccc1C | 99
49 | Cc1ccc(CCC(=O)Nc2cccc(Nc3ccc4c(/C=C/c5ccccc5)n[nH]c4c3)c2)cc1 | 29
50 | C[C@@]12C[C@H]3C[C@H]1C[C@@]3(C(=O)Nc1cccc(Nc3ccc4c(/C=C/c5ccccc5)n[nH]c4c3)c1)C2 | 15
51 | CC(C)(C)[C@@H](O)C(=O)Nc1cccc(Nc2ccc3c(/C=C/c4ccccc4)n[nH]c3c2)c1 | 10
52 | CC(C)C(=O)Nc1cccc(Nc2ccc3c(/C=C/c4ccccc4)n[nH]c3c2)c1 | 24
53 | CCNc1ccccc1C(=O)Nc1cccc(Nc2ccc3c(/C=C/c4ccccc4)n[nH]c3c2)c1 | 71
54 | CC(C)CC(O)C(=O)Nc1cccc(Oc2ccc3c(/C=C/c4ccccc4)n[nH]c3c2)c1 (stereo not drawn) | 69
55 | Cc1cc(C(=O)Nc2cccc(Oc3ccc4c(/C=C/c5ccccc5)n[nH]c4c3)c2)oc(=O)c1 | 83
56 | CC(C)[C@@H](O)C(=O)Nc1cccc(Oc2ccc3c(/C=C/c4ccccc4)n[nH]c3c2)c1 | 32
57 | O=C(Cc1ccccc1)C(=O)Nc1cccc(Oc2ccc3c(/C=C/c4ccccc4)n[nH]c3c2)c1 | 25
58 | C[C@@]12C[C@H]3C[C@H]1C[C@@]3(C(=O)Nc1cccc(Oc3ccc4c(/C=C/c5ccccc5)n[nH]c4c3)c1)C2 | 30
